The record followed here is the METLIN SMRT retention time set (Domingo-Almenara et al. 2019).

This series can be described thus: gradient 5% acetonitrile 3 min, to 50% in 2 min, to 85% in 15 min, held 3 min, 100 µL/min. The conditions noted are these: column: Zorbax Extend-C18 2.1 x 50 mm; eluents: water / acetonitrile, 0.1% formic acid. In outline: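 The mobile phases were water and acetonitrile, each with 0.1% formic acid, pumped at 100 μL/min through a Zorbax Extend-C18 column (2.1 × 50 mm, 1.8 μm). Pure standards were injected as mixtures of ~100 molecules and detected by a quadrupole time-of-flight mass spectrometer in positive and negative ionization mode. Retention time came from computationally picked adduct peaks, each inspected by hand.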
For the compound `Cc1ccc(N2CC(c3noc(-c4cc(F)ccc4F)n3)CC2=O)cc1` (centres undefined), the RP-LC retention time was found to be 1000 s.

For `Cc1occc1-c1nnc2sc(COc3ccc(Br)cc3)nn12`, the RP-LC retention time stood at 1040 s.

In turn, `CCCC(C)c1nnc(NC(=O)C2CCN(C(=O)c3cccc(F)c3)CC2)s1` (centres undefined) displayed an RP-LC retention time of 831 s.

As for `COc1cccc(CNC2CCN(c3ccc(C(=O)NC4CC4)cn3)C2)c1` (centres undefined), the RP-LC retention time turned out to be 547 s.

The compound `Cc1cc(C)c2c(-n3cccc3)nn(CC(=O)NCc3cccc(Br)c3)c2n1` yielded an RP-LC retention time of 1020 s.

`O=C(c1cccc2ccccc12)N1CCN(c2ccc(Nc3ccncc3)nn2)CC1` displayed an RP-LC retention time of 554 s.

For the compound `COc1ccccc1NC(=O)N1CCN(c2ccc(-c3noc(C)n3)cn2)CC1`, the RP-LC retention time is 724 s.

`Cc1c2cnn(CC(=O)NCCN(C)C)c(=O)c2c(C)n1Cc1ccccc1Cl` came in with an RP-LC retention time of 655 s.

Turning to `COc1ccc(-c2cc3c(=O)n(Cc4nc(-c5ccccc5)oc4C)ccn3n2)cc1`, the RP-LC retention time was found to be 936 s.

For the compound `Cc1ccc(C(=O)Nc2ccc(N3CCN(c4ccccc4)C3=O)nc2)cc1C`, the RP-LC retention time was 1070 s.

Compound `COc1ccccc1-c1noc(C2CCCN2C(=O)Nc2cccc(C#N)c2)n1` (centres undefined) registered an RP-LC retention time of 823 s.

`COc1ccc(Cl)cc1C(=O)NCC1(O)CCOCC1` came in with an RP-LC retention time of 622 s.

Compound `O=C(NC1CCCCC1)c1nc(-c2ccc(N3CCCC3)cc2)no1` came in with an RP-LC retention time of 1160 s.

Take `COc1cccc(CCC(=O)NCC(=O)Nc2nc3ccccc3[nH]2)c1`: the RP-LC retention time is 639 s.

As to `CC(C)(C)c1ccc2c(c1)N(Cc1nc(-c3cccc(F)c3)no1)C(=O)CO2`, the RP-LC retention time worked out at 1240 s.

With `CCc1csc(-c2ccc(N3CCN(C(=O)c4ccc(OC)c(F)c4)CC3)nc2)n1`, the RP-LC retention time worked out at 936 s.

Regarding `O=C(NC1CCCCCC1)c1ccc2ccnc(N3CCN(c4ccc(F)cc4)CC3)c2c1`, the RP-LC retention time is 973 s.

Compound `O=C1C(N2CCN(S(=O)(=O)c3cccs3)CC2)CCN1Cc1cccnc1` (centres undefined) yielded an RP-LC retention time of 536 s.

In turn, `Cc1cc(C)cc(Oc2nccn3c(=O)n(CC(=O)NC4CCCC4)nc23)c1` displayed an RP-LC retention time of 834 s.

The compound `O=C(CN1C(=O)CCSc2ccccc21)NCc1ccc(F)cc1` came in with an RP-LC retention time of 794 s.

Turning to `COc1cccc(CNC(=O)CN2CCc3[nH]c4c(OC)ccc(Cl)c4c(=O)c3C2)c1`, the RP-LC retention time came out at 618 s.

For the compound `COc1ccccc1CNC(=O)c1ccc2c(c1)N(C)C(=O)C1CCCCN21` (centres undefined), the RP-LC retention time was 880 s.

For the compound `O=C1CCCC(=O)C1CC1C(=O)CCCC1=O`, the RP-LC retention time amounted to 836 s.

The compound `Cc1ccc2oc(C(=O)NCc3ccc4c(c3)OCO4)cc2n1` had an RP-LC retention time of 635 s.

Consider `C=CCN1CCN(C(=O)C2CCN(c3cc(Nc4ccc(C)cc4)ncn3)CC2)CC1`, for which the RP-LC retention time is 572 s.

`O=C(Cn1cnc2nc3c(cc2c1=O)CCCC3)Nc1cc(F)ccc1F` registered an RP-LC retention time of 738 s.

Take `Cc1nc(-c2ccccc2)nn1C1CCN(S(=O)(=O)c2ccc(Cl)s2)C1` (centres undefined): the RP-LC retention time turned out to be 902 s.

Compound `CCc1onc(C)c1C1CCCN1C(=O)c1c(OC)cccc1OC` (centres undefined) gave an RP-LC retention time of 898 s.

The compound `COc1ccc(-n2c(CN3CCN(C(=O)NCc4ccco4)CC3)nc3cccnc32)cc1` gave an RP-LC retention time of 617 s.

As to `C=CCN(Cc1nc(-c2cccc(C)c2)no1)C(=O)Nc1ccc(C)cc1`, the RP-LC retention time came out at 1110 s.

For the compound `Cc1ccsc1C(=O)N1CCC2(CCCCO2)CC1`, the RP-LC retention time is 780 s.

For the compound `CCOc1ccc(NC(=O)C2CCN(S(=O)(=O)c3ccc4c(c3)NC(=O)CO4)CC2)cc1`, the RP-LC retention time turned out to be 801 s.

In turn, `Cc1cc(=O)n(CC(=O)NC(C)C)c(N2CCc3ccccc3C2)n1` yielded an RP-LC retention time of 665 s.

For the compound `Cc1nn(-c2nc3ccccc3[nH]2)c2c1C(=O)CC(/C=C/c1ccccc1)C2` (centres undefined), the RP-LC retention time was 1030 s.

As for `CCOc1ccccc1N1C(=O)CC(N2CCC(C(N)=O)CC2)C1=O` (centres undefined), the RP-LC retention time came to 589 s.

The compound `NCCC1CCN(C(=O)Nc2cc(F)ccc2F)CC1` showed an RP-LC retention time of 588 s.

`O=C(NC1CCCCCC1)C1CCN(Cc2cc3ccccc3n2Cc2ccccc2Cl)CC1` returned an RP-LC retention time of 899 s.

With `O=C(NCCCN1CCCC1)c1c2c(nc3ccccc13)C(=O)N(C1CCCCC1)C2`, the RP-LC retention time worked out at 595 s.

In turn, `O=C(Cn1c(=O)cc(-c2nc(-c3ccccc3)no2)c2ccccc21)N1CCCC1` gave an RP-LC retention time of 1000 s.

`Cc1ccc(CNC(=O)C2CCCN(C(=O)c3[nH]c(C)cc3C)C2)cc1` (centres undefined) returned an RP-LC retention time of 804 s.

In turn, `O=C(NCc1csc(-c2cccs2)n1)C1CCN(C(=O)c2ccccc2F)CC1` returned an RP-LC retention time of 743 s.

As to `CCCCOP(=O)(OCCCC)C1(C)CC(=O)CC(C)(C)C1` (centres undefined), the RP-LC retention time is 1100 s.

As to `CCCn1ccc2oc(C)c(C(=O)NC(C)c3ccc(OCC)cc3)c2c1=O` (centres undefined), the RP-LC retention time is 1070 s.

In turn, `O=C1Cc2ccccc2N1c1c(Cl)cccc1Cl` returned an RP-LC retention time of 875 s.

Compound `CCC(=O)N1CCc2cc(N3CC(C(=O)NCc4ccc(F)cc4F)CC3=O)ccc21` (centres undefined) showed an RP-LC retention time of 755 s.

As to `Cc1ccc(-n2nc(N3CCCN(S(=O)(=O)c4ccccc4F)CC3)ccc2=O)cc1`, the RP-LC retention time turned out to be 860 s.

In turn, `COc1ccc(-c2cn3c(CC(=O)N(Cc4cccs4)C4CCCCC4)csc3n2)cc1OC` showed an RP-LC retention time of 931 s.

`CN(C)[C@@H]1CN(C(=O)Cc2cccc3ccccc23)C[C@H]1CO` showed an RP-LC retention time of 546 s.

In the case of `COCC1(O)CCOC2(CCN(Cc3cccc(F)c3F)CC2)C1` (centres undefined), the RP-LC retention time was determined as 589 s.

`CCc1nc2cc(N3CCC(C(=O)NCc4cc(F)cc(F)c4)CC3)cnc2nc1CC` came in with an RP-LC retention time of 838 s.

In turn, `COc1ccc(C2CC(=O)N(c3ccc(C)c(Cl)c3)C(=O)C2)cc1` had an RP-LC retention time of 1010 s.

As to `O=C1NCCCn2cc(S(=O)(=O)N3CCN(c4ccccc4F)CC3)cc21`, the RP-LC retention time was 742 s.

Compound `CC1CCc2onc(C(=O)N(C)Cc3ccccc3)c2C1` (centres undefined) returned an RP-LC retention time of 1020 s.

With `COc1cc(-c2noc(Cn3ncn4nc(-c5cc(C)ccc5C)cc4c3=O)n2)cc(OC)c1OC`, the RP-LC retention time was 1140 s.

In turn, `COC[C@@H]1CN(C(=O)c2cc3cc(Cl)ccc3[nH]2)C[C@H]1C(N)=O` yielded an RP-LC retention time of 672 s.

Take `Cc1csc(-c2ccc(N3CCN(C(=O)c4ccncc4)CC3)nc2)n1`: the RP-LC retention time came to 632 s.

Consider `CCCN(C)c1nccn2c(=O)n(CC(=O)Nc3ccc(C)c(Cl)c3)nc12`, for which the RP-LC retention time amounted to 765 s.

The compound `COc1ccc(NC(=O)Nc2c(-c3ccc(F)cc3)nc3ccccn23)cc1F` came in with an RP-LC retention time of 668 s.

`CCCn1c(=O)oc2cc(NC(=O)NCC(=O)OCC)ccc21` had an RP-LC retention time of 703 s.

For `Cn1nccc1-c1cccc(-c2noc(-c3ccc(Cl)cc3)n2)c1`, the RP-LC retention time is 1250 s.

As for `CCOC(=O)c1c(C)[nH]c(C)c1S(=O)(=O)N1CCC(C(=O)Nc2cccc(C#N)c2)CC1`, the RP-LC retention time came out at 797 s.

For `Cc1ccc(-c2noc(Cn3ncn4nc(-c5ccccc5Cl)cc4c3=O)n2)cc1`, the RP-LC retention time stood at 1200 s.

Take `CC(C)c1noc(-c2cc(=O)n(CC(=O)NCc3cccc(Cl)c3)c3ccccc23)n1`: the RP-LC retention time turned out to be 1030 s.

Regarding `CCN1CCC(N(Cc2ccc3c(c2)OCO3)C(=O)Nc2ccc(OC)c(OC)c2)CC1`, the RP-LC retention time was 616 s.

For the compound `Cc1cc(S(=O)(=O)[C@H]2CS(=O)(=O)C[C@@H]2N2CCN(c3ccc(F)cc3)CC2)ccc1F`, the RP-LC retention time came to 662 s.

`CC1CC(=O)c2cnn(-c3nc4ccccc4[nH]3)c2C1` (centres undefined) had an RP-LC retention time of 761 s.

Take `COc1ccc(CN2C[C@@H]3C(=O)N(Cc4ccc5c(c4)OCO5)C(=O)[C@@H]3C2)c(OC)c1`: the RP-LC retention time amounted to 691 s.

Consider `CCn1c(SCC(=O)N(C)C)nnc1-c1ccc2c(c1)OCCCO2`, for which the RP-LC retention time was found to be 671 s.

`CCOc1ccccc1NC(=O)C(CC)n1cnc2nc3c(cc2c1=O)CCCC3` (centres undefined) returned an RP-LC retention time of 919 s.

In turn, `COc1ccc(N2C(=O)C3N=NN(Cc4nc(-c5ccc6c(c5)OCO6)no4)C3C2=O)cc1OC` (centres undefined) came in with an RP-LC retention time of 834 s.

For `O=C(Nc1ccccc1)N1CCCC(Cn2c(C3CC3)nc3cccnc32)C1` (centres undefined), the RP-LC retention time came to 655 s.

`O=C(NCCCc1ccccc1)c1cccc2c1CCN2C(=O)C1CC1` had an RP-LC retention time of 902 s.

For `COCCCNC(=O)N1CC(c2nc(C)no2)C2(CCOCC2)C1` (centres undefined), the RP-LC retention time came out at 598 s.

In the case of `CCCN1CCN(C(=O)c2cn(-c3ccc(-c4nc(C(C)(C)C)no4)cn3)cn2)CC1`, the RP-LC retention time stood at 681 s.

In turn, `Cc1ccc(CN2C(=O)NC3(CCN(C(=O)c4ccc[nH]4)CC3)C2=O)cc1` registered an RP-LC retention time of 767 s.

`Cc1noc(-c2cc(=O)n(CC(=O)Nc3c(C)cccc3C)c3ccccc23)n1`: the RP-LC retention time stood at 839 s.

Take `O=C(NCCc1c[nH]c2ccccc12)c1nc[nH]c1C(=O)NCc1ccccn1`: the RP-LC retention time was 641 s.

Compound `Cc1nc(-c2cc3cccc(C)c3nc2N2CCN(c3ccc(F)cc3)CC2)no1` returned an RP-LC retention time of 732 s.

For `CCCCN(C)S(=O)(=O)c1cc(-c2nnc(C(C)C)o2)co1`, the RP-LC retention time amounted to 984 s.
